Target: T1, Human BCL-XL protein (N-terminal HiBiT tagged BCL-XL in HT1080 cells) (Homo sapiens, UniProt Q07817)
T1 construct: expressed in transfected cells; host or cells: HT-1080 (ATCC CCL-121), stably transduced with lentivirus pLV-UBC-N-HiBiT-BCL-XL-PGK-puro and selected with puromycin
Assay: HiBiT based degradation assay
Assay type: cell-based
Details: HT1080 cells expressing HiBiT-BCL-XL, 24 h; for Ymin (24 h): BCL-XL degradation normalized with DMSO control; for DC50: BCL-XL degradation, read-out: EC50 (24 h)
Method in brief: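 HT1080 cells stably transduced by lentivirus with N-terminally HiBiT-tagged human BCL-XL and kept under 1 μg/mL puromycin selection were seeded at three thousand cells per well in 40 μL RPMI 1640 into 384-well plates pre-spotted with compounds across a concentration range. Luminescence was read on a PHERAstar FSX, normalized to DMSO, and fitted with a four-parameter logistic model.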

T1 sequence (Q07817 whole entry): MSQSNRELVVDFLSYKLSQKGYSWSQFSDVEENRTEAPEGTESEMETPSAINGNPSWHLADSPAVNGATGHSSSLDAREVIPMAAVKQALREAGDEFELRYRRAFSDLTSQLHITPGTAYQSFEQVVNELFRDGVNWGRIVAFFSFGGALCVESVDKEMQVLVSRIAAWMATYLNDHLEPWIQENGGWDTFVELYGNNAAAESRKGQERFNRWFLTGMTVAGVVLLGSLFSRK

Compound | Ymin (24 h) | DC50 [nM]
Cc1cc(OCCC[C@H]2CCN(CC(=O)Nc3ccc4c(C5CCC(=O)NC5=O)nn(C)c4c3)[C@H](C)C2)ccc1-c1ccc(N2CCc3cccc(C(=O)Nc4nc5ccccc5s4)c3C2)nc1C(=O)O (stereo partly drawn) [Compound 344c, 6-[8-(1,3-benzothiazol-2-ylcarbamoyl)-3,4-dihydro-1H-isoquinolin-2-yl]-3-[4-[3-[(2R,4S)-1-[2-[[3-(2,6-dioxo-3-piperidyl)-1-methyl-indazol-6-yl]amino]-2-oxo-ethyl]-2-methyl-4-piperidyl]propoxy]-2-methyl-phenyl]pyridine-2-carboxylic acid] | A (Ymin < 50%) | < 100
Cc1cc(OCCC[C@@H]2CCN(CC(=O)Nc3ccc4c(C5CCC(=O)NC5=O)nn(C)c4c3)[C@@H](C)C2)ccc1-c1ccc(N2CCc3cccc(C(=O)Nc4nc5ccccc5s4)c3C2)nc1C(=O)O (stereo partly drawn) [Compound 344d, 6-(8-(benzo[d]thiazol-2-ylcarbamoyl)-3,4-dihydroisoquinolin-2(1H)-yl)-3-(4-(3-((2S,4R)-1-(2-((3-(2,6-dioxopiperidin-3-yl)-1-methyl-1H-indazol-6-yl)amino)-2-oxoethyl)-2-methylpiperidin-4-yl)propoxy)-2-methylphenyl)picolinic acid] | A (Ymin < 50%) | < 100
Cc1c(O[C@H]2CC[C@H](CCCCN3CCN(c4cccc5c(C6CCC(=O)NC6=O)nn(C)c45)C[C@H]3C)CC2)cccc1-c1ccc(N2CCc3cccc(C(=O)Nc4nc5ccccc5s4)c3C2)nc1C(=O)O (stereo partly drawn) [Compound 345a, 6-(8-(benzo[d]thiazol-2-ylcarbamoyl)-3,4-dihydroisoquinolin-2(1H)-yl)-3-(3-(((1s,4r)-4-(4-((2R)-4-(3-(2,6-dioxopiperidin-3-yl)-1-methyl-1H-indazol-7-yl)-2-methylpiperazin-1-yl)butyl)cyclohexyl)oxy)-2-methylphenyl)picolinic acid] | A (Ymin < 50%) | < 100
Cc1c(O[C@H]2CC[C@H](CCCCN3CCN(c4ccc5c(C6CCC(=O)NC6=O)nn(C)c5c4)C[C@@H]3C(F)(F)F)CC2)cccc1-c1ccc(N2CCc3cccc(C(=O)Nc4nc5ccccc5s4)c3C2)nc1C(=O)O (stereo partly drawn) [Compound 346a, 6-(8-(benzo[d]thiazol-2-ylcarbamoyl)-3,4-dihydroisoquinolin-2(1H)-yl)-3-(3-(((1s,4r)-4-(4-((2R)-4-(3-(2,6-dioxopiperidin-3-yl)-1-methyl-1H-indazol-6-yl)-2-(trifluoromethyl)piperazin-1-yl)butyl)cyclohexyl)oxy)-2-methylphenyl)picolinic acid] | A (Ymin < 50%) | < 100
Cc1c(O[C@H]2CC[C@H](CCCCN3CCN(c4ccc5c(C6CCC(=O)NC6=O)nn(C)c5c4)C[C@H]3C(F)(F)F)CC2)cccc1-c1ccc(N2CCc3cccc(C(=O)Nc4nc5ccccc5s4)c3C2)nc1C(=O)O (stereo partly drawn) [Compound 346b, 6-(8-(benzo[d]thiazol-2-ylcarbamoyl)-3,4-dihydroisoquinolin-2(1H)-yl)-3-(3-(((1r,4r)-4-(4-((2S)-4-(3-(2,6-dioxopiperidin-3-yl)-1-methyl-1H-indazol-6-yl)-2-(trifluoromethyl)piperazin-1-yl)butyl)cyclohexyl)oxy)-2-methylphenyl)picolinic acid] | A (Ymin < 50%) | < 100
Cc1c(O[C@H]2CC[C@H](CCCN3CCN(c4ccc5c(C6CCC(=O)NC6=O)nn(C)c5c4)C[C@@H]3C(F)(F)F)CC2)cccc1-c1ccc(N2CCc3cccc(C(=O)Nc4nc5ccccc5s4)c3C2)nc1C(=O)O (stereo partly drawn) [Compound 347a, 6-(8-(benzo[d]thiazol-2-ylcarbamoyl)-3,4-dihydroisoquinolin-2(1H)-yl)-3-(3-(((1s,4r)-4-(3-((2R)-4-(3-(2,6-dioxopiperidin-3-yl)-1-methyl-1H-indazol-6-yl)-2-(trifluoromethyl)piperazin-1-yl)propyl)cyclohexyl)oxy)-2-methylphenyl)picolinic acid] | A (Ymin < 50%) | < 100

More lines, now with the values ahead:

Ymin (24 h) | DC50 [nM] | Compound
A (Ymin < 50%) | < 100 | Cc1c(O[C@H]2CC[C@H](CCCN3CCN(c4ccc5c(C6CCC(=O)NC6=O)nn(C)c5c4)C[C@H]3C(F)(F)F)CC2)cccc1-c1ccc(N2CCc3cccc(C(=O)Nc4nc5ccccc5s4)c3C2)nc1C(=O)O (stereo partly drawn) [Compound 347b, 6-(8-(benzo[d]thiazol-2-ylcarbamoyl)-3,4-dihydroisoquinolin-2(1H)-yl)-3-(3-(((1r,4r)-4-(3-((2S)-4-(3-(2,6-dioxopiperidin-3-yl)-1-methyl-1H-indazol-6-yl)-2-(trifluoromethyl)piperazin-1-yl)propyl)cyclohexyl)oxy)-2-methylphenyl)picolinic acid]
A (Ymin < 50%) | < 100 | Cc1c(O[C@H]2CC[C@H](CCCC(C)(C)N3CCN(c4ccc5c(C6CCC(=O)NC6=O)nn(C)c5c4)CC3)CC2)cccc1-c1ccc(N2CCc3cccc(C(=O)Nc4nc5ccccc5s4)c3C2)nc1C(=O)O (stereo partly shown) [Compound 350a, 6-(8-(benzo[d]thiazol-2-ylcarbamoyl)-3,4-dihydroisoquinolin-2(1H)-yl)-3-(3-(((1s,4r)-4-(4-(4-(3-(2,6-dioxopiperidin-3-yl)-1-methyl-1H-indazol-6-yl)piperazin-1-yl)-4-methylpentyl)cyclohexyl)oxy)-2-methylphenyl)picolinic acid]
